Experiment [1] relates to mouse E11.5 brain primary cultures. As to the kind of experiment: Mouse E11.5 brain primary cultures (Islet1+, active caspase 3+, BrdU, Nkx6.1 counts). It is filed as cell-based. To be noted: for Number of Islet1+ cells: wild type cultures, 3 DIV; for Effect on Islet1+ cells with Lxr antagonist GGPP / Number of active caspase-3+ cells: wt cultures; for Number of active caspase-3+ cells: 10 μM 3β,7α-diHCA, 3βH,7O-CA, 25-HC, low concentrations of 3β,7β-diHCA, 3β-HCA. The method, then: Primary Brain Cultures. Brains from E11.5 mice were manually dissected, plated on poly-D-lysine (150,000 cells/cm2) and grown in serum-free N2 media consisting of 1:1 mixture of F12 and DMEM with 10 ng/mL insulin, 100 μg/mL apo-transferrin, 100 μM putrescine, 20 nM progesterone, 30 nM selenium, 6 mg/mL glucose, and 1 mg/mL BSA. Cells were treated for 3 days in vitro (DIV) with the compounds of interest, fixed with 4% PFA and processed for staining using appropriate antibodies.
For BrdU analysis, cells were treated with BrdU one hour after plating and media was replaced with fresh medium after 16 h. After a further 2 days in culture, cells were treated for 30 min with 2N HCl and then immunocytochemistry was performed to evaluate the number of double BrdU+;Islet1+ cells (a measure of motor neuron neurogenesis). Hoechst staining was performed by permeabilizing cells with a 0.3% Triton-X 100/PBS solution for 5 min followed by incubation with Hoechst 33258 (Sigma) for 10 min.
Antibodies and Detection Procedures. Cells were fixed in 4% PFA, washed in PBS and blocked in 5% normal goat serum/PBS for 1 h at room temperature. Primary antibodies were diluted in PBS (pH 7.4), 0.3% Triton X-100, 1% BSA and incubations were carried out overnight at +4° C. or at room temperature for 2 h. The antibodies used were anti-: BrdU (1:400; Abeam), Islet-1 (1:100; Developmental Studies Hybridoma Bank), cleaved caspase-3 (Asp175) (1:100; Cell Signaling Technology), tyrosine hydroxylase (TH;1:1000; Pel-Freeze) GABA (1:1,000; Sigma), Brn3a (1:250; Millipore), Nkx6.1 (1:200; Novus Biologicals), choline acetyltransferase (ChAT; 1:500; Millipore) and appropriate secondary antibodies (Jackson ImmunoResearch or Alexa). Cells positive for the corresponding marker were counted directly at the microscope at a magnification of 20 x. Cells were counted in every well, in eight consecutive fields (going from one side of the well to the other, passing through the center), in three different wells per experiment and in three different experiments per condition. Random pictures of the wells were taken for every condition to document the result, and representative pictures were subsequently selected to represent the quantitative data. Photos were acquired with a Zeiss Axioplan microscope and a Hamamatsu camera C4742-95 using the Openlab software.

Experiment [2] concerns the target T1, Lxrα (Homo sapiens, UniProt Q13133).
T1 construct: expressed in transfected cells; host or cells: SN4741 mouse neuronal cell line
T1 sequence (Q13133 1-447): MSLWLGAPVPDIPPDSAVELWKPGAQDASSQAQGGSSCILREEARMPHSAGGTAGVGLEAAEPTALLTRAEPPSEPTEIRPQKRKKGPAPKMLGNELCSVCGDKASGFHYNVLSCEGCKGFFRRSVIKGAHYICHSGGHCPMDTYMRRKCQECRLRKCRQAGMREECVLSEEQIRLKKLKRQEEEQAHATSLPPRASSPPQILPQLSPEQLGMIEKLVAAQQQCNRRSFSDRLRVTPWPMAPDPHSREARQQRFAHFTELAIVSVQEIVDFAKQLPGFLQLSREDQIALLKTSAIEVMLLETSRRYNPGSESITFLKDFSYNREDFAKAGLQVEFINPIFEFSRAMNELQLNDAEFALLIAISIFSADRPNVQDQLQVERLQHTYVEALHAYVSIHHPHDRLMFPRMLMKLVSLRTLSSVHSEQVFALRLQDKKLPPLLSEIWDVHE
Put plainly: Lxr-responsive luciferase reporter assay (Lxre + Lxrα) in SN4741 neural cells. Format: cell-based, mouse. To be noted: for Lxrα activation, luciferase activity: 10 μM, 24 h; for Lxr luciferase activity with the Lxr antagonist GGPP: metabolite 10 μM + GGPP 10 μM. From the text: (§1) Luciferase Reporter Assay.

Experiment [3] deals with T2, Lxrβ (Homo sapiens, UniProt P55055).
T2 construct: expressed in transfected cells; host or cells: SN4741 mouse neuronal cell line
T2 sequence (P55055 1-460): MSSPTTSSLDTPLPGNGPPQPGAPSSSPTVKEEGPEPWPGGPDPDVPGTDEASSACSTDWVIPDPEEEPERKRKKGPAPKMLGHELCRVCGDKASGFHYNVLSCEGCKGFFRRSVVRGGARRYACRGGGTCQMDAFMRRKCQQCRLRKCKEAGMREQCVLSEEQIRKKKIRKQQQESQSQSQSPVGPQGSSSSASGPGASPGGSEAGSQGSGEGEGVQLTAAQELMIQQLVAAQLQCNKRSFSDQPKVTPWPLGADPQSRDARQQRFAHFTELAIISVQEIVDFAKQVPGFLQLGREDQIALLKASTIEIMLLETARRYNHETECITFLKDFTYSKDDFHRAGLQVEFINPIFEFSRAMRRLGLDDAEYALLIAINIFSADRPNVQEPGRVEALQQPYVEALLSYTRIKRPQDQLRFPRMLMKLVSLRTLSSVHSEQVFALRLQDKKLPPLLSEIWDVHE
Put plainly: Lxr-responsive luciferase reporter assay (Lxre + Lxrβ) in SN4741 neural cells. Format: cell-based, mouse. The settings on record: SN4741 cells, 10 μM, 24 h.
Description: as §1
In general terms: Reporter assays use an easily measured gene product as a stand-in for the process of interest.

Experiment [4] deals with Islet-1:GFP transgenic zebrafish embryos. Format: in vivo. The settings on record: 10 μM. The method, then:
Quantitative PCR. Total RNA was extracted from SN4741 cells and zebrafish treated with the compounds of interest using the RNeasy Mini Kit (Qiagen), 1 μg was treated with RQ1 RNase-free DNase (Promega) and reverse transcribed using Superscript II Reverse Transcriptase (Invitrogen) and random primers (Invitrogen) (RT+ reaction). Parallel reactions without reverse transcriptase enzyme were done as a control (RT− reaction), and Sybergreen real-time quantitative PCR assays were performed. Expression levels were obtained by normalization with the value of the housekeeping gene encoding actin obtained for every sample in parallel assays.
Zebrafish Strain and Mainrenance Zebrafish were raised on a 14/10 h day/night cycle and were kept at 28.5° C. Islet-1:GFP transgenic embryos were obtained via natural spawning and staged in hours or days post fertilization (hpf and dpf) according to Kimmel et al). Embryos older than 24 hpf were treated with 0.03% phenylthiourea (PTU) to inhibit pigmentation. MO injections were performed using splice site specific zebrafish 1xr MO. MO injected embryos were immediately dechorionated and transferred to a 96 well plate and exposed to dimethyl sulfoxide (DMSO) treated or ligand treated medium.
Compound Exposure. Islet-1:GFP embryos were collected by natural mating and immediately (at 1 cell stage) dechorionated and transferred to a 96 well plate. Each of the compounds tested were obtained as 10 mM stock and diluted in embryo medium to a final concentration of 10 μM, and 200 μL was added to each well. DMSO or propan-2-ol treated embryo medium was taken as control. Ligand solutions were replaced every 12 h with fresh ligand solution prepared in PTU treated embryo medium. Embryos were collected at 48 hpf, fixed for 4 h at room temperature with 4% paraformaldehyde and then washed and kept in PBST. Immunocytochemistry was performed using an anti-GFP antibody and fluorescence was viewed and photographed using a Zeiss Axioplan compound microscope and a Zeiss Axiocam digital camera.

Regarding `CC(CCC[C@@H](C)[C@H]1CC[C@H]2[C@@H]3C(=O)C=C4C[C@@H](O)CC[C@]4(C)[C@H]3CC[C@]12C)C(=O)O` (stereo partly drawn) [3βH, 7O-CA, 3β-hydroxy-7-oxocholest-5-en-26-oic acid], in experiment [1], the “Number of other midbrain neurons (TH+ dopamine, GABAergic, red nucleus)” value is “did not affect the number of other midbrain neurons”; the “Number of Islet1+ cells” value is recorded as “increased the number of Islet1+ oculomotor cells in the cultures”; the “Number of active caspase-3+ cells” value is “did not affect the number of active caspase-3+ cells”. Further, the “Effect on Islet1+ cells with Lxr antagonist GGPP” value in experiment [1] (GGPP 10 μM) is “blocked by the Lxr antagonist GGPP”. Also, the “Lxrα activation, luciferase activity” value in experiment [2] was “have the ability to activate both Lxrs”. In addition, the “Lxrβ activation, luciferase activity” value in experiment [3] is on record as “have the ability to activate both Lxrs”. Besides, in experiment [4], the “Islet-1 mRNA and protein level (qPCR, western blot)” value is “increase in the level of Islet-1 mRNA and protein”; the “abca1 mRNA expression in vivo” value was “enhanced expression of abca1”. In experiment [4] (48 hpf), the “Islet-GFP expression in cranial nerves” value is on record as “increased Islet-GFP expression” and the “Number of Islet1+ cells in cranial nerves (III, IV, V, VII, X)” value is “no significant effect on the number of Islet1+ cells”. In experiment [4] (lxr MO vs control scrambled MO), the “Islet-GFP levels after lxr morpholino (MO) injection” value is “abolished the in vivo increase in Islet-GFP levels”.
Take `CC(CO)CCC[C@@H](C)[C@H]1CC[C@H]2[C@@H]3[C@H](O)C=C4C[C@@H](O)CC[C@]4(C)[C@H]3CC[C@]12C` (stereo partly drawn) [7α,26-diHC, cholest-5-ene-3β,7α,26-triol]: the “Lxrα activation, luciferase activity” value in experiment [2] was “none of which was found to show significant activity”. For the same compound, in experiment [3], the “Lxrβ activation, luciferase activity” value is “none of which was found to show significant activity”.
For the compound `CC(CO)CCC[C@@H](C)[C@H]1CC[C@H]2[C@@H]3[C@H](O)CC4=CC(=O)CC[C@]4(C)[C@H]3CC[C@]12C` (stereo partly drawn) [7α,26-diHCO, 7α,26-dihydroxycholest-4-en-3-one], in experiment [2], the “Lxrα activation, luciferase activity” value is given as “none of which was found to show significant activity”. Further, the “Lxrβ activation, luciferase activity” value in experiment [3] is “none of which was found to show significant activity”.
`CC(CCC[C@@H](C)[C@H]1CC[C@H]2[C@@H]3[C@H](O)CC4=CC(=O)CC[C@]4(C)[C@H]3CC[C@]12C)C(=O)O` (stereo partly drawn) [7αH,3O-CA, 7α-hydroxy-3-oxocholest-4-en-26-oic acid]: the “Lxrα activation, luciferase activity” value in experiment [2] is “none of which was found to show significant activity”. Also, in experiment [3], the “Lxrβ activation, luciferase activity” value is on record as “none of which was found to show significant activity”. The “abca1 mRNA expression in vivo” value in experiment [4] was “not”. Further, in experiment [4] (48 hpf), the “Islet-GFP expression in cranial nerves” value was “failed to regulate Islet-GFP expression”.
`CC(CCC[C@@H](C)[C@H]1CC[C@H]2[C@@H]3[C@@H](O)CC4=CC(=O)CC[C@]4(C)[C@H]3CC[C@]12C)C(=O)O` (stereo partly drawn) [7βH,3O-CA, 7β-hydroxy-3-oxocholest-4-en-26-oic acid]: the “Lxrα activation, luciferase activity” value in experiment [2] is “none of which was found to show significant activity”. In experiment [3], the “Lxrβ activation, luciferase activity” value is “none of which was found to show significant activity”.
For `CC(C)CC[C@@H](O)[C@@H](C)[C@H]1CC[C@H]2[C@@H]3CC=C4C[C@@H](O)CC[C@]4(C)[C@H]3CC[C@]12C` [22R-HC, 22R-hydroxycholesterol, reference compound], in experiment [1], the “Number of Islet1+ cells” value is “does not show an effect towards Islet1+ cells”. For the same compound, the “Lxr luciferase activity with the Lxr antagonist GGPP” value in experiment [2] is reported as “similarly blocked”.
As to `CC(C)[C@@H](O)CC[C@@H](C)[C@H]1CC[C@H]2[C@@H]3CC=C4C[C@@H](O)CC[C@]4(C)[C@H]3CC[C@]12C` [24S-HC, Cholest-5-ene-3β,24S-diol], in experiment [2], the “Lxrα activation, luciferase activity” value is listed as “activate Lxr”. Further, in experiment [3], the “Lxrβ activation, luciferase activity” value is recorded as “activate Lxr”.
With `C[C@H](CCCC(C)(C)O)[C@H]1CC[C@H]2[C@@H]3CC=C4C[C@@H](O)CC[C@]4(C)[C@H]3CC[C@]12C` [25-HC, cholest-5-ene-3β,25-diol], the “Effect on active caspase-3+ cells with GGPP” value in experiment [1] (GGPP 10 μM, 3β,7β-diHCA, 3β-HCA at 2 μM) was “GGPP sensitive manner”. For the same compound, the “Effect on Islet1+ cells in cultures from Lxrα−/−β−/− mice” value in experiment [1] (Lxrα−/−β−/− cultures) is listed as “blocked in cultures from Lxrα−/−β−/−animals”. Also, in experiment [1], the “Number of Islet1+ cells” value was “increase the number of Islet1+ oculomotor cells” and the “Number of active caspase-3+ cells” value is “reduced the number of active caspase-3+ cells”. Further, the “Effect on Islet1+ cells with Lxr antagonist GGPP” value in experiment [1] (GGPP 10 μM) is listed as “inhibited by the Lxr antagonist GGPP”. For the same compound, in experiment [2], the “Lxrα activation, luciferase activity” value is recorded as “activate Lxr” and the “Lxr luciferase activity with the Lxr antagonist GGPP” value was “similarly blocked”. Also, in experiment [3], the “Lxrβ activation, luciferase activity” value was “activate Lxr”. The “Islet-GFP expression in cranial nerves” value in experiment [4] (48 hpf) is “modest increase in the levels of Islet-1”.
With `C[C@@H](CO)CCC[C@@H](C)[C@H]1CC[C@H]2[C@@H]3CC=C4C[C@@H](O)CC[C@]4(C)[C@H]3CC[C@]12C` [26-HC, cholest-(25R)-5-ene-3β,26-diol], in experiment [1], the “Number of Islet1+ cells” value is on record as “no effect on the number of Islet1+ cells”. Moreover, in experiment [2], the “Lxrα activation, luciferase activity” value is reported as “no a significant effect”. Besides, in experiment [3], the “Lxrβ activation, luciferase activity” value was “no a significant effect”.
